One data set concerns humans. The conditions noted are these: corresponding to the rat value, ref Richard et al., 2009, Fernstrom, 2012; cited from earlier work. From the text:
(§1) Also, the indole ring of tryptophan prefers to interact with a […], and the indole NH being close to a lipid carbonyl ester leads W-containing peptides to be powerful and safe promising antibiotic candidates with different beneficial effects ([Dixon et al., 2003]; ...

In a further data set the test system is rats. The note with it: ref Richard et al., 2009, Fernstrom, 2012; cited from earlier work.
Description: as §1

In data set [1] the test system is E. coli ATCC 25922. As to the kind of experiment: Mouse infection model, bacterial load. In kind it is in vivo. The conditions noted are these: ICR mice, i.p. E. coli 1 × 10^8 CFU/ml, 5 mg/kg i.p. 1 h later, 6 h, P < 0.05. As to the method:
Female Institute for Cancer Research (ICR) mice (SPF, 20–25 g) were purchased from WeiTonglihua, Co., Ltd. (Beijing, China). Mice were fed and acclimatized as described ([Chou et al., 2019]). E. coli ATCC 25922 was adopted as the pathogenic bacterium for the infection model in this study. In this mouse model, the antimicrobial activity of S7 was determined by colony counting of blood and various organs. Briefly, the mice were divided into four groups (six groups for anti-inflammatory assay) and received intraperitoneal injections of 100 μl E. coli (1 × 10^8 CFU/ml) cells in 0.9% NaCl or only 100 μl 0.9% NaCl as control. 1 h later, 100 μl S7 (5 mg/kg), 100 μl 0.9% NaCl, 100 μl gentamicin (5 mg/kg) or 100 μl 0.9% NaCl, was intraperitoneally injected to the treated or control groups, respectively. And the mice were sacrificed via excessive anesthesia after 6 h post-challenge. The anti-inflammatory effect of S7 was measured by testing the levels of TNF-α, IL-6, and IL-1β in serum using a TNF-α enzyme-linked immunosorbent assay (ELISA) kit, an IL-6 ELISA kit and an IL-1β ELISA kit according to the manufacturer’s instructions (Shanghai Jin Ma Laboratory Equipment, Co., Ltd.).

Data set [2] concerns E. coli ATCC 25922. As to the kind of experiment: Drug resistance experiment (sequential passaging). The format is cell-based, Escherichia coli. The note with it: E. coli 25922, passaged at sub-MIC for 30 days. The procedure:
Resistance development of E. coli ATCC 25922 against antibiotics was investigated using a sequential passaging method. Briefly, in the first generation, the MIC value was determined as described previously. After a 24 h incubation, bacterial cells growing in a well with a half-MIC level were harvested and diluted to 0.05 at OD600, followed by a 1:10 dilution in fresh MHB. The inoculum was subjected to subsequent passage MIC testing, and the process was repeated for 30 days. The fold change in MIC was plotted against the number of passages.

The text below walks through data of article PMC7160233, “Peptides With Triplet-Tryptophan-Pivot Promoted Pathogenic Bacteria Membrane Defects” (Frontiers in Microbiology, 2020).

For the molecule `N[C@@H](Cc1c[nH]c2ccccc12)C(=O)O` [Tryptophan (W), Tryptophan], the “median lethal dose (LD50), corresponding dose in humans” value with humans is about 1400 mg/kg. The “median lethal dose (LD50)” value in the data set on rats was 1600 mg/kg.

For `CNC(C)C1CCC(N)C(OC2C(N)CC(N)C(OC3OCC(C)(O)C(NC)C3O)C2O)O1` (stereo not shown) [gentamicin], the “number of colonies in blood, kidney and liver versus E. coli group” value with E. coli ATCC 25922 [1] is on record as “significantly decreased”. Besides, in the data set on E. coli ATCC 25922 [2], the “resistance development (change in MIC on serial passaging)” value is given as “induced rapid resistance acquisition”.
